pIC50: −log10 of the molar value. “Also recorded” adds a separate entry of the source. Where two headings read alike, the source gives them in different places.
What was measured:
rat stomach [1] = conditions: in vivo, po, 5 mg/kg
ovine COX-1 = target: T1, ovine COX-1 (Ovis aries, UniProt P05979); assay: In vitro COX-1 inhibition assay (colorimetric COX inhibitor screening kit, Cayman); format: biochemical; conditions: mean of three determinations
T1 construct: purchased Cayman Chemicals Inc. 560131
T1 sequence (P05979 25-600): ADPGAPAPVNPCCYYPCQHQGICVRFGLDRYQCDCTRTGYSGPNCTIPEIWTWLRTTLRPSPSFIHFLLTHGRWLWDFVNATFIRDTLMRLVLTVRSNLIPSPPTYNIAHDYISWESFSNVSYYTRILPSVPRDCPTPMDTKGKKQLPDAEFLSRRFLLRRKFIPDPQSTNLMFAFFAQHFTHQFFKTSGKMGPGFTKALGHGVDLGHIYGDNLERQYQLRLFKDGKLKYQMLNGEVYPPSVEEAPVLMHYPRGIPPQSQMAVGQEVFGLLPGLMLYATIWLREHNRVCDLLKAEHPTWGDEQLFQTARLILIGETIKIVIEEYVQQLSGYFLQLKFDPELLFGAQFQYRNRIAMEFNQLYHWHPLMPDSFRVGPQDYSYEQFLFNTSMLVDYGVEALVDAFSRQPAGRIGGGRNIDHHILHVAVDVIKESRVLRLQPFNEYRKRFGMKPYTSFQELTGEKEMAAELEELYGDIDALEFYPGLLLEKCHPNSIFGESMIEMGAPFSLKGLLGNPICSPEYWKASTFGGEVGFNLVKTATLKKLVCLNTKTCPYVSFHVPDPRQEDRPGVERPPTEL
Procedure: (§1) Both assays were carried out in compliance with the manufacturer’s instructions and in accordance to prior studies[29]^,[33].
(§2) IC50 values (μM) and selectivity indices (SI) were calculated.

15-LOX = target: T2, 15-LOX (Glycine max, UniProt P08170); assay: In vitro 15-LOX inhibition assay (lipoxygenase inhibitor screening kit, Cayman); format: biochemical; conditions: mean of three determinations
T2 construct: purchased Cayman chemicals 760700
T2 sequence (P08170 1-839): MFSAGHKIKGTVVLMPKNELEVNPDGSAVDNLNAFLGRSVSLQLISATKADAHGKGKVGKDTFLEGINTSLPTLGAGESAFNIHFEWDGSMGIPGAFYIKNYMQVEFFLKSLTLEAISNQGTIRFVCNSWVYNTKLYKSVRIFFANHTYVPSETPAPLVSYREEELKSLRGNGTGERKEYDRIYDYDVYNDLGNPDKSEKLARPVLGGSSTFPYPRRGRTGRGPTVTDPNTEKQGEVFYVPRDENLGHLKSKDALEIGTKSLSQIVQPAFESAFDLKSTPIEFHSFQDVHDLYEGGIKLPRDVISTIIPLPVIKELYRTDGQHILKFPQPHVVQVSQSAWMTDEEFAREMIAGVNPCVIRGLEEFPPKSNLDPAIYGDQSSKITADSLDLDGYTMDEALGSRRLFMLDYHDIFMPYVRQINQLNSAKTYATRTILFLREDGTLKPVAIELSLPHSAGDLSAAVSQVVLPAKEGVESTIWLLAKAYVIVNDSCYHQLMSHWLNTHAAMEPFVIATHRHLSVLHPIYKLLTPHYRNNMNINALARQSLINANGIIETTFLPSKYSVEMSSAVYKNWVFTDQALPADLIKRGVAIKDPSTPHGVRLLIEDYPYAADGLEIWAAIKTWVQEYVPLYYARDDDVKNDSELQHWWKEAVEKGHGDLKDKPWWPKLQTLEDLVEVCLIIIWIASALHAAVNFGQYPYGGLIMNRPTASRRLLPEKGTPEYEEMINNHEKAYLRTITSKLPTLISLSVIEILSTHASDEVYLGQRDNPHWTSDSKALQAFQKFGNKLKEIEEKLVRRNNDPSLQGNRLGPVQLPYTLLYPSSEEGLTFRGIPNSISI
Procedure: as §1, §2

human recombinant COX-2 = target: T3, human recombinant COX-2 (Homo sapiens, UniProt P35354); assay: In vitro COX-2 inhibition assay (colorimetric COX inhibitor screening kit, Cayman); format: biochemical; conditions: for SI (COX-1/ COX-2): IC50 (COX-1)/IC50 (COX-2); for pIC50: mean of three determinations
T3 construct: purchased Cayman Chemicals Inc. 560131
T3 sequence (P35354 18-604): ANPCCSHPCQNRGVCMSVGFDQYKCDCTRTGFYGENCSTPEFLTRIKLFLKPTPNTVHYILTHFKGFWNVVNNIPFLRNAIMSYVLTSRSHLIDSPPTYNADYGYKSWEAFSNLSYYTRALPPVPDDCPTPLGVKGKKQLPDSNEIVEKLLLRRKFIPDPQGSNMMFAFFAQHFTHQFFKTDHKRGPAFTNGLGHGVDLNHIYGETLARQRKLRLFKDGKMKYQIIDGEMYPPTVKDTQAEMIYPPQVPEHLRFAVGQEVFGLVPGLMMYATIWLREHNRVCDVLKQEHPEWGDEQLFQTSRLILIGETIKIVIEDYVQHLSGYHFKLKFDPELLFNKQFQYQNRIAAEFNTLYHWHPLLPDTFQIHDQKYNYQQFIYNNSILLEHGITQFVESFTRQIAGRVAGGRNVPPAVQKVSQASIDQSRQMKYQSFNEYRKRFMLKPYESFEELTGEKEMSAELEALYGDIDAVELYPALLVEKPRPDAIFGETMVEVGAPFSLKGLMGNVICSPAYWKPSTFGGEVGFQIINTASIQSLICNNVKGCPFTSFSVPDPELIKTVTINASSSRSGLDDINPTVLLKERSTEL
Procedure: as §1, §2

IL-1β = IL-1β protein expression by Western blotting; format: cell-based, human; conditions: 100 μM compound; PMA 24 h then LPS 72 h; normalised to GAPDH
Procedure: THP-1 monocytes were exposed to 100 μM of the test compounds, activated with 25 nM PMA for 24 h followed by 100 ng/ml LPS for 72 h. At the end of the incubation period, cells were harvested, proteins were extracted and SDS-PAGE electrophoresis, blotting, and antibody probing were conducted as described previously. Primary rabbit polyclonal antibodies to IL-1β, procaspase-3, and GAPDH were obtained from Abcam (Cambridge, UK). Clarity Western ECL substrate (BioRad, Hercules, CA, USA) was used to obtain a chemiluminescence signal captured by a Chemidoc imaging system (BioRad, Hercules, CA, USA). Band density was estimated using ImageJ software (National Institutes of Health, Bethesda, MD) and normalised to the GAPDH band density as a loading control.

THP-1 cells [2] = assay: Monocyte-to-macrophage differentiation assay, M1 polarisation (PMA then LPS); format: cell-based, human; conditions: for pIC50: Homo sapiens, THP-1, 6 h pre-incubation, PMA 25 nM 24 h then LPS 100 ng/ml 72 h, MTS, read-out: IC50 inhibition of THP-1 monocyte differentiation into M1 macrophages
Procedure: (§3) Monocytes were cultured and differentiated as described previously. THP-1 cells (human acute monocytic leukaemia lineage, American Type Culture Collection, Manassas, VA) were seeded at a density of 20 × 10^5 cells/ml. A set of cells were exposed to 25 nM of phorbol myristate-acetate (PMA, Calbiochem, Darmstadt, Germany) for 24 h to drive differentiation. Another set was similarly treated with PMA followed by 100 ng/ml of lipopolysaccharide (LPS, invivogen, San Diego, CA, USA) for 72 h. After incubation, the supernatant was aspirated and the density of the adherent cells was estimated using MTS colorimetric cell viability kit (Abcam, Cambridge, UK). The inhibitory actions of different compounds on the differentiation process were evaluated by pre-incubation with different concentrations of each compound for 6 h. Cell viability after treatment was normalised to the reading after PMA exposure following a 6-h incubation with DMSO. All experiments were conducted in triplicates. A positive control for the effect of COX1/COX2 inhibition on monocyte-to-macrophage differentiation was obtained by treatment with diclofenac. IC50 values for each compound were determined by non-linear regression as the best fit values of the log [inhibitor] vs. response curve using GraphPad Prism software.

rat stomach [3] = assay: Gastric ulcerogenic activity and histopathological examination; conditions: stomach removed on 8th day of administration, 5 mg/kg oral
[4] = test system: PMA/LPS-stimulated THP-1 (M1 macrophages); assay: Cytotoxicity assay on differentiated M1 macrophages (MTS); format: cell-based, human; conditions: PMA 24 h, LPS 24 h, then compound 24 h; up to 100 μM
Procedure: To confirm that the previous observations were a consequence of interference of the compounds with the differentiation process rather than a reduction in monocyte viability, THP-1 monocytes were incubated with different concentrations of the compound for 30 h. No difference in cell viability was detected. Moreover, the cytotoxic effects of the drugs on differentiated macrophages were evaluated. Following the incubation of THP-1 cells with 25 nM PMA for 24 h and 100 ng/ml LPS for 24 h, the differentiated macrophages were treated with different concentrations of the compounds for 24 h. Cell viability was assessed using MTS colorimetric cell viability kit (Abcam, Cambridge, UK).

[5] = test system: cotton pellet-induced granuloma; assay: Cotton pellet-induced granuloma assay (chronic inflammation model); conditions: oral 5 mg/kg daily; pellets excised on 8th day; vs diclofenac sodium and celecoxib; 5 mg/kg
THP-1 cells [6] = assay: Monocyte-to-macrophage differentiation assay, resting M0 macrophages (PMA only); format: cell-based, human; conditions: data not shown
Procedure: as §3

| Compound | Gross observation of isolated rat stomachs (rat stomach [1]) | Histopathological examination of stomach gastric layers (rat stomach [1]) | pIC50 (ovine COX-1) | pIC50 (15-LOX) | SI (COX-1/ COX-2) (human recombinant COX-2) | pIC50 (human recombinant COX-2) | IL-1β expression in PMA/LPS-challenged THP-1 (IL-1β) | pIC50 (THP-1 cells [2]) | Inhibition of THP-1 differentiation into M1 macrophages (in words) (THP-1 cells [2]; PMA then LPS, diclofenac as reference) | Gross observation of isolated rat stomachs (rat stomach [3]) | Histopathological examination of stomach gastric layers (rat stomach [3]; H&E, 5 mg/kg) | M1 macrophage cell viability [4] | Inhibition of cotton pellet granuloma weight (in words) [5] | IC50 for M0 macrophage differentiation (in words) (THP-1 cells [6]) |
| --- | --- | --- | --- | --- | --- | --- | --- | --- | --- | --- | --- | --- | --- | --- |
| Cc1ccc(-c2cc(C(F)(F)F)nn2-c2ccc(S(N)(=O)=O)cc2)cc1 [Celecoxib] | normal stomach texture | no ulceration with normal gastro-esophageal junction | – | – | – | – | – | – | – | – | – | – | – | – |
| O=C1N=C(N2CCOCC2)S/C1=C\c1cn(-c2ccccc2)nc1-c1ccccc1 [Compound 4, (Z)-5-((1,3-diphenyl-1H-pyrazol-4-yl)methylene)-2-morpholinothiazol-4(5H)-one] | – | – | 4.95 | 5.33 | 80 | 6.85 | attenuating IL-1β production | 4.95 | potent inhibitory effects on monocyte-to-macrophage differentiation; also recorded: higher potency compared to diclofenac | variable levels of hyperaemia without gross ulceration | esophago-gastric inflammation; also recorded: gastro-esophageal inflammatory infiltrates | tended to slightly decrease | – | – |
| COc1ccc(-c2nn(-c3ccccc3)cc2/C=C2\SC(N3CCOCC3)=NC2=O)cc1 [Compound 8, (Z)-5-((3-(4-methoxyphenyl)-1-phenyl-1H-pyrazol-4-yl)methylene)-2-morpholinothiazol-4(5H)-one] | – | – | 4.90 | 5.33 | 113 | 6.96 | attenuating IL-1β production | 3.46 | – | – | – | – | superior anti-inflammatory activity, when compared to diclofenac and celecoxib; also recorded: increased inhibition of granuloma weight in comparison to both celecoxib and diclofenac | – |
| O=C(O)Cc1ccccc1Nc1c(Cl)cccc1Cl [Diclofenac Na, Diclofenac sodium, reference compound] | – | – | – | – | – | – | – | 4.00 | – | normal stomach texture | – | – | – | comparable IC50 to that observed for the M1 macrophage differentiation |
